Values joined by “and” are separate entries in the source; they are usually repeats but may differ in a detail not shown here. Equal entries are not always repeated. “Also recorded” adds a separate entry of the source.
Tests used:
[1] = Blood-brain barrier penetration; assay type: in vivo, mouse
SOD1 = molecular target: T1, SOD1 (Homo sapiens, UniProt P00441, G94A); test: Target engagement in blood during the survival studies; assay type: in vivo, mouse
T1 construct: Extraction of SOD1^G93A from red blood cell (RBC) protein was performed as previously described; tissue Jackson Laboratory 002726; host or cells: red blood cells of transgenic B6SJL-Tg(SOD1*G93A)1Gur/J mice
Text: (§1) Two fALS lines were used to assess survival in genetic backgrounds with different disease severity. […] Dose and dose regimen were estimated from the blood PK/PD profile and BBB penetration described above. A subcutaneous (SC) route of administration was chosen because in our hands it results in more precise delivery. […] In both studies, mice were gender and littermate matched and non ALS-related deaths were excluded. We are currently developing the methods necessary for quantifying copy number and cannot rule out reduced SOD1 expression as having contributed to the survival benefit in treated B6 G93A mice.
The data underlying this figure can be found in S1 Data. fALS, familial amyotrophic lateral sclerosis.

[2] = system: NSC-34 cells expressing EGFP-WT-SOD1; test: Relative cell viability of transfected NSC-34 cells; assay type: cell-based, mouse; settings: for Viability %: WT, 48 h, replicates
Method: (§2) Transfected NSC-34 cells were plated out into 96-well plates and left overnight. […] Cells were then fixed using 4% (w/v) paraformaldehyde in 1×PBS for 20 min. Plates for imaging were then processed as previously described with some changes. Cells were imaged using a DMi8 epifluorescent microscope (Leica, Germany) fitted with a Mercury Arc Lamp, a 10× 0.25NA (CAT NO) air objective and an automated stage. A software-based autofocus strategy was utilized to focus on the GFP signal within cells, with a subsequent image being taken in the DAPI channel to view Hoescht-stained nuclei. Relative focus correction was applied between channels to offset emission wavelength effects to the focal plane. Following image acquisition, images were corrected for illumination variation via a background method and processed using a combination of FIJI [66], StarDist, CellProfiler, and CellProfiler Analyst as previously described.
(§3) Image set data taken from the previous inclusion formation assay were used to examine both relative cell viability and relative levels of SOD1-EGFP. To determine relative viability, we extracted the total number of transfected cells in each treatment group and normalized the values to the untreated group to determine the relative number of cells at assay endpoint.

[3] = as above; assay type: cell-based, mouse; settings: mouse, 48 h, replicates
Method: as §2, §3

[4] = system: NSC-34 cells expressing EGFP-G93A; test: as above; assay type: cell-based, mouse; settings: for Viability %: G93A, 48 h, replicates
Method: as §2, §3

[5] = MTT cell viability/cytotoxicity assay; assay type: cell-based; settings: human, Hep G2 cells
Method: The Hep G2 human hepatocarcinoma cell line (American Type Culture Collection, ATCC, Manassas, Virginia, USA) was cultured using EMEM (Eagle’s minimal essential medium, ATCC) supplemented with 10% FBS (fetal bovine serum, ATCC) and 1% penicillin streptomycin as previously described (10,000 units/mL penicillin and 10,000 μg/mL streptomycin, Fisher scientific, Hampton, New Hampshire, USA). The cells were grown and subcultured around 72 h at 37°C, 5% CO2 under controlled humidity. The cells growth and morphology were inspected using an inverted Carl Zeiss microscope (Carl Zeiss Microscopy LLC, White Plains, New York, USA).
Using manufacturer’s instructions, Hep G2 cells were cultured for 24 h with a density of 2 × 10^5 cells/mL in a 96-well culture plate at 37°C, 5% CO2 under controlled humidity. […] Cell cytotoxicity was performed via the MTT (3-(4,5-dimethylthiazol-2-yl)-2,5-diphenyltetrazolium bromide) assay at 570 nm absorbance using BioTek synergy H1 (Vermont, USA) plate reader according to previously published paper. The MTT stock was made at 5 mg/mL using 0.9% sodium chloride solution which was purchased from Sigma Aldrich (St. Louis, Missouri, USA). Twenty-four hours after dosing the plate, the cultured medium was aspirated and replaced with the equal volume of MTT solution (10× dilution using EMEM complete media). The plate was incubated for 4 h (37°C, 5% CO2). The MTT solution was replaced by the equal amount of acidified isopropanol (0.3% hydrochloric acid (v/v)) and then formed formazan was dissolved by shaking the plate gently for 30 min. The absorbance was measured at 570 nm for both the samples and acidified isopropanol for background calculation. Chlorpromazine and cells with 0.1% DMSO were used as positive control and vehicle, respectively. The cell viability of each concentration was measured by normalizing against mean value of cells with 0.1% DMSO (vehicle).

B6SJL G93A mice = test: Survival study, hybrid B6SJL G93A mice, S-XL6 SC 20 then 50 mg/kg once a day Monday to Friday; assay type: in vivo, mouse
Text: as §1
The first line was derived by crossing (over >10 generations) congenic fALS “B6 G93A mice” (B6.Cg-Tg(SOD1*G93A)1Gur/J, Stock No. 004435, The Jackson Laboratory, Bar Harbor, Maine, USA) with “YFP-16 mice” [50] (B6.Cg-Tg(Thy1-YFP)16Jrs/J, Stock No. 003709, The Jackson Laboratory, Bar Harbor, Maine, USA). This line maintains the C57BL/6J genetic background and expresses YFP in motor and sensory neurons to enable cellular-level molecular profiling in future studies. The second line is the standard “Hybrid B6SJL G93A mice” (B6SJL-Tg(SOD1*G93A)1Gur/J Stock No. 002726, The Jackson Laboratory, Bar Harbor, Maine, USA). Methods for survival studies have been described and followed the conventions for optimal trial design with fALS mice. Mice were tested for difference in: (1) disease onset (at least a 20% decrease in grip strength and open-field motor performance, which we expect to correlate with change in weight); (2) disease end-stage (disease score, e.g., loss of righting reflex); and (3) weight. The hybrid line was additionally tested for differences in forelimb and hindlimb grip strength.

T1 sequence (P00441 2-154 G94A limits assumed): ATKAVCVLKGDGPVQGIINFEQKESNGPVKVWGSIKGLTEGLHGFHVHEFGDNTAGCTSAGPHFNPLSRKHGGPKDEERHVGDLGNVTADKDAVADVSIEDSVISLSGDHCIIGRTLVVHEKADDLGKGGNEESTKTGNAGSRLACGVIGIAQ

Compound: [O-][S+]1CCCCS1 (centres unmarked) [S-XL6, 1,2-dithiane-1-oxide]
- blood–brain barrier crossing ([1]; fALS mouse model): crosses the blood–brain barrier
- log BB at 1 h ([1]; transgenic SOD1^G93A, mouse, brain/blood, subcutaneous, 30 mg/kg): 0.02
- Kp at 1 h ([1]; transgenic SOD1^G93A, mouse, brain/blood, subcutaneous, 30 mg/kg, read-out: % BBB penetration): 0.0002
- target engagement after initial dose (SOD1; B6SJL G93A mice, initial SC dose of 20 mg/kg): lower target engagement than expected
- SOD1 engaged (on average) over time (SOD1; survival studies, 50 mg/kg SC): approximately 40%
- viability of cells expressing EGFP-labeled wild-type SOD1 [2]: did not affect the viability
- Viability % ([2]; 5 uM): 118.019% and 98.8542% and 94.2887% and 103.364% and 96.0765%
- Viability % ([2]; 10 uM): 120.286% and 102.188% and 99.0654% and 102.243% and 98.2897%
- Viability % ([2]; 20 uM): 91.25% and 91.5888% and 93.8838% and 89.0342%
- viability at 48 h, 5 µM ([3]; NSC-34 cells expressing EGFP-G93A, G93A, 5 uM): 96%
- viability at 48 h, 10 µM ([3]; NSC-34 cells expressing EGFP-G93A, G93A, 10 uM): 97.2%
- viability at 48 h, 20 µM ([3]; NSC-34 cells expressing EGFP-G93A, G93A): 83%
- viability at 48 h, 20 µM ([3]; NSC-34 cells expressing EGFP-WT-SOD1, WT): 109%
- survival/viability of cells expressing EGFP-labeled G93A [4]: did not affect
- Viability % ([4]; 5 uM): 106.323% and 98.5697% and 106.015% and 108.827%
- Viability % ([4]; 10 uM): 107.355% and 99.404% and 108.897% and 105.562%
- Viability % ([4]; 20 uM): 94.1936% and 84.8629% and 91.604% and 88.2709%
- viability at 24 h, 10 µM ([5]; 10 µM, read-out: viable cells compared to vehicle control (MTT)): 125%
- viability at 24 h, 100 µM ([5]; 100 µM, read-out: viable cells compared to vehicle control (MTT)): 102%
- viability at 24 h, 150 µM ([5]; 150 µM, read-out: viable cells compared to vehicle control (MTT)): 90%
- viability at 24 h, 250 µM ([5]; 250 µM, read-out: viable cells compared to vehicle control (MTT)): 79%
- viability at 24 h, 400 µM ([5]; 400 µM, read-out: viable cells compared to vehicle control (MTT)): 72%
- viability at 24 h, 600 µM ([5]; 600 µM, read-out: viable cells compared to vehicle control (MTT)): 15%
- viability at 24 h, 800 µM ([5]; 800 µM, read-out: viable cells compared to vehicle control (MTT)): 14%
- viability at 24 h, 1000 µM ([5]; 1000 µM, read-out: viable cells compared to vehicle control (MTT)): 14%
- CC50 at 24 h ([5]; MTT, read-out: Cytotoxicity LC50): ~446 µM
- survival benefit (B6SJL G93A mice; 50 mg/kg SC once a day, Monday to Friday, from day 70): no survival benefit; also recorded: No survival improvement
- Age (wks) (B6SJL G93A mice; individual mice, Tx D (dosed), age at end-stage, found dead or sacrifice): 17.7143 wks and 17.5714 wks and 17.8571 wks and 15.5714 wks and 18.7143 wks and 17.4286 wks and 16.1429 wks and 18 wks and 15.8571 wks and 17.1429 wks
- Age (B6SJL G93A mice; individual mice, Tx D (dosed), age at end-stage, found dead or sacrifice (131-day mice sac'd for tissue)): 124 days and 123 days and 125 days and 109 days and 131 days and 122 days and 113 days and 126 days and 111 days and 120 days

— article PMC10826971, “Evaluating protein cross-linking as a therapeutic strategy to stabilize SOD1 variants in a mouse model of familial ALS” (PLOS Biology, 2024)
